# Experiments:
# NIH3T3/EGFR vIII cells = assay: 3D cell culture step (environment without adhesion scaffold), proliferation of NIH3T3/EGFR vIII cells; type: cell-based, mouse; conditions: for IC50: Mus musculus, 72 h, NIH3T3/EGFR vIII cells, Ultra Low Attachment plate, 3 days, […]-GLO
# NIH3T3 cells = assay: 2D cell culture step (environment with adhesion scaffold), proliferation of NIH3T3 cells; type: cell-based; conditions: Mus musculus, 72 h; NIH3T3 cells, TC-treated plate, 3 days, […]-GLO; read-out: IC50 2D cell culture step
# Experimental: Note that, as a negative control, the NIH3T3 cells at 2×10^3 cells/100 were seeded to the same plate in a volume of 100 μL per well and cultured at 37° C. in the presence of 5% CO2 for 3 days without the addition of the test substance.
# Note that, Dulbecco's Modified Eagle Medium supplemented with 5% FBS was used for the culture.
# A cell proliferation inhibition rate in the 2D cell culture step was calculated according to (Expression 2) below. Cell proliferation inhibition rate(%)=(1−D/E)×100 (Expression 2)
# In the (Expression 2), D denotes the number of viable NIH3T3 cells when the test substance was added, and E denotes the number of viable NIH3T3 cells when the test substance was not added.
smiles,measurement,setting,value
"CCOC(=O)Cn1c(=O)c(-c2cc(Br)ccc2N)nc2ccccc21 [Structural Formula (14), ethyl 2-[3-(2-amino-5-bromophenyl)-2-oxohydroquinoxalinyl]acetate]",IC50,NIH3T3/EGFR vIII cells,10 µM
same,IC50,NIH3T3 cells,> 10 µM
"CCNc1ccccc1-c1nc2ccccc2[nH]c1=O [Structural Formula (11), 3-[2-(ethylamino)phenyl]-2(1H)-quinoxalinone]",IC50,NIH3T3/EGFR vIII cells,> 10 µM
same,IC50,NIH3T3 cells,> 10 µM
"Nc1ccc(Cl)cc1-c1nc2ccccc2[nH]c1=O [Structural Formula (6), 3-(2-amino-5-chlorophenyl)hydroquinoxalin-2-one]","cell proliferation inhibiting activity compared with AG1478, Gefitinib and Erlotinib",NIH3T3/EGFR vIII cells; 3D cell culture step,more significant cell proliferation inhibiting activity
same,IC50,NIH3T3/EGFR vIII cells,0.014 µM
same,IC50,NIH3T3 cells,> 10 µM

# — patent publication US9969699B2, “Cancer cell growth inhibitor, anticancer agent, and method for screening same, as well as novel compound” (Microbial Chemistry Research Foundation, priority 2014, dated 2018)
